Earlier results on 3 molecules are cited in US20200323830A1, “TREATMENT OF VIRAL HEMORRHAGIC FEVERS WITH ETORICOXIB” (priority 2019, published 2020).

Like-named read-outs stand apart in the source and are kept apart here.

The conditions of data set [1]: dengue infection.
The conditions of data set [2]: dose of more than 60 mg/kg/day before admission, dengue subjects.
The conditions of data set [3]: chronic therapy, 4 grams daily.
For data set [4] the following is noted: intake within 24 h, dengue subjects.
For data set [5] the following is noted: oral, once daily.
For data set [6], the system named is platelet aggregation or bleeding time.
Assay in data set [7]: not given
This is another data set of the same source.

Data set [8] concerns the target T1, COX-1 activity in circulating platelets (Homo sapiens, UniProt P23219).
T1 construct: COX-1 activity in circulating platelets; endogenous in cells; host or cells: circulating platelets of healthy subjects
Conditions: therapeutic doses, healthy subjects.

For data set [9] the following is noted: for incidence of joint bleeding: 90 mg, hemophilic arthropathy.
For data set [10] the following is noted: versus placebo, acute pain after surgery.
The conditions of data set [11]: in vivo.
The conditions of data set [12]: chronic use for up to one year.
For data set [13] the following is noted: humans; similar to diclofenac and ibuprofen.
For data set [14] the following is noted: monkeys; similar to diclofenac and ibuprofen.

T1 sequence (P23219 24-599): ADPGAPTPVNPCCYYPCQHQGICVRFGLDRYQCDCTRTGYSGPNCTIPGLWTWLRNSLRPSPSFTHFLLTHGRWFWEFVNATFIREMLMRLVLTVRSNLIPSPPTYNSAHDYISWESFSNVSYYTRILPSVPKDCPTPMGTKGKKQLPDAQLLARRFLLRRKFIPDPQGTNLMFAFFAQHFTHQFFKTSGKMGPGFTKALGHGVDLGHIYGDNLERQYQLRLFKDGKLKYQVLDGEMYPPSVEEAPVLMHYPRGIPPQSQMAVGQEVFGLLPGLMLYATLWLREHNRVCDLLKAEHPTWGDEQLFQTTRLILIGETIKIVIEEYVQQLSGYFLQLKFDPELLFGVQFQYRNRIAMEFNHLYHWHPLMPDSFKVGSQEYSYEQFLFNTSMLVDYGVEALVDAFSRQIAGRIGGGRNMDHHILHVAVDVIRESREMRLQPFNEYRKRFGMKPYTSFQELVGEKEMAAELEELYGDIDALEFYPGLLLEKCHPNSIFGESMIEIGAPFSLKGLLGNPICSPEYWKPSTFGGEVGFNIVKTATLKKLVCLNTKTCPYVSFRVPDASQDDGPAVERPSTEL

Regarding `CC(=O)Nc1ccc(O)cc1` [acetaminophen/paracetamol], the transaminase elevation entry in data set [1] (median daily dose 1.5 g) was “caused transaminase elevation”; in data set [4], “significantly associated with transaminase elevation”. In [1] (versus placebo), the “pain scores, analgesic intake, length of stay, duration of fever” value is given as “not significantly different from placebo”. Also, the occurrence of hepatitis entry in [2] is recorded as “significantly associated with the occurrence of hepatitis”. In addition, the “share of all cases of acute liver failure” value (academic centers of the Acute Liver Failure Study Group, 2005) is given as 42% and the “share of all cases of acute liver failure” value (population-based, metropolitan Atlanta, 2007) was 41%. The “persons with peak serum aminotransferase values ≥3 times the upper normal limit” value in [3] is 39%.

As for `Cc1ccc(-c2ncc(Cl)cc2-c2ccc(S(C)(=O)=O)cc2)cn1` [etoricoxib, 5-chloro-2-(6-methylpyridin-3-yl)-3-[4-(trideuteriomethylsulfonyl)phenyl]pyridine], in data set [5], the half-life result is recorded as “approximately 22 hours”. The “effect on platelet aggregation or bleeding time” value in data set [6] (doses up to 500 mg) is “does not affect platelet aggregation or bleeding time”. In addition, the “effects on bleeding time or platelet aggregation” value in [6] (ex vivo whole-blood assays after multiple oral doses) is on record as “no important effects on bleeding time or platelet aggregation”. Besides, the “median onset of action” value in data set [7] (acute pain settings) is 24 min. The risk of bleeding result in data set [7] (acute pain studies) is on record as “not associated with an increased risk of bleeding”. Besides, the “duration of sustained efficacy” value in data set [7] (single dose) is 24 h. Moreover, the “effect on COX-1 activity in circulating platelets” value in data set [8] is listed as “does not affect COX-1 activity in circulating platelets”. The “incidence of joint bleeding” value in data set [9] (6-month extension) is 78.9%; in [9] (6-week portion), 66.7%. Moreover, the “serious AEs” value in data set [9] (placebo-controlled portion, two events, both on etoricoxib) was 3.9%. In addition, the “fever AEs” value in [10] is “fewer fever AEs than subjects on placebo”. Further, the “COX-2 versus COX-1 selectivity” value in the data set on COX-2 versus COX-1 is recorded as 106 fold. The “GI tolerability and safety events” value in data set [11] is given as “significant improvements”. The “subjects with elevated ALT or AST (≥3 times the upper limit of normal)” value in [12] is recorded as 1%.

As for `CS(=O)(=O)c1ccc(C2=C(c3ccccc3)C(=O)OC2)cc1` [rofecoxib], the antipyretic activity entry in data set [13] and in [14] was “antipyretic activity” throughout.
